Data on four molecules can be found in patent publication US11325899B2, “Benzofurane and benzothiophene derivatives as PGE2 receptor modulators” (IDORSIA PHARMACEUTICALS LTD, priority 2017, dated 2022).

As a reminder, the IC50 is the concentration at which inhibition is half-maximal.

What all share (assay type): cell-based
The target of one test is T1, PTGER2 (EP2) (Homo sapiens, UniProt P43116).
T1 construct: host or cells: HEK 293 (PathHunter PTGER2 b-arrestin cell line)
Nature of the test: hEP2 b-arrestin assay (PathHunter HEK 293 PTGER2 b-arrestin cells). Particulars: antagonistic activity, beta-arrestin assay; read-out: hEP2 b-arr IC50. In short, it runs like this:
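PathHunter HEK293 cells with ProLink-tagged EP2 and EA-β-arrestin 2 preincubated 15 min at 37 °C with compound (10 μM-2 nM or 1 μM-0.2 nM), then stimulated 120 min with 5 μM PGE2 (EC80). β-gal complementation read by chemiluminescence; IC50 from duplicate dose-response versus DMSO.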

Another test has as its target T2, PTGER4 (EP4) (Homo sapiens, UniProt P35408).
T2 construct: host or cells: HEK 293 (PathHunter PTGER4 b-arrestin cell line)
Nature of the test: hEP4 b-arrestin assay (PathHunter HEK 293 PTGER4 b-arrestin cells). As to conditions: antagonistic activity, beta-arrestin assay; read-out: hEP4 b-arr IC50. In short, it runs like this:
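PathHunter HEK 293 cells expressing ProLink-tagged human EP4 and EA-β-arrestin 2, seeded 24 h before. Compounds (10 μM–2 nM or 1 μM–0.2 nM) preincubated 15 min at 37 °C, then 20 nM PGE2 (EC80) for 120 min at 37 °C. β-gal complementation luminescence read; IC50 from duplicate dose-response curves versus DMSO control.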

The next test has as its target T3, EP4 receptor (Homo sapiens, UniProt P35408).
T3 construct: BT549 breast cancer cells, express high endogenous EP4 levels and very low EP2 levels; host or cells: BT549 breast cancer cells
Kind of test: hEP4 cAMP assay (BT549 breast cancer cells, HTRF cAMP, PGE2 stimulation). Particulars: antagonistic activity, PGE2 6 nM (EC80). In short, it runs like this:
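BT549 cells, with endogenous EP4 and very low EP2, were preincubated 45 min at room temperature with compound in HBSS/HEPES/BSA buffer with 2 mM IBMX. They were then stimulated 30 min with 6 nM PGE2 (EC80). cAMP was measured by HTRF competitive immunoassay against a calibrator; IC50 from duplicate dose-response as % of DMSO control.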

T2 sequence (P35408 whole entry): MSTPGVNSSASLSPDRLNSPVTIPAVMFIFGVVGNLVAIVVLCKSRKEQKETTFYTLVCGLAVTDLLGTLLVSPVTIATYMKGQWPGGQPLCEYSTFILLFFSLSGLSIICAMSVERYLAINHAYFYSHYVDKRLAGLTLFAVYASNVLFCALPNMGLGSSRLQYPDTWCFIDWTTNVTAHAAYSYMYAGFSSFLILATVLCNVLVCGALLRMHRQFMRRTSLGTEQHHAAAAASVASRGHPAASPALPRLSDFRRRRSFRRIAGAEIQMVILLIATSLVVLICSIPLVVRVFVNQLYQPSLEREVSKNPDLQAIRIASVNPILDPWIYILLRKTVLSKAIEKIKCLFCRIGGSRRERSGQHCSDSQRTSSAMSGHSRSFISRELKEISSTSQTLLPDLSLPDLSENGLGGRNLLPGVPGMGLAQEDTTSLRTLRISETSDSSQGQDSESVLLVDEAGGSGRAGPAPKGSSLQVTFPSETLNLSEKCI
T3 sequence (P35408 whole entry): as above
T1 sequence (P43116 whole entry): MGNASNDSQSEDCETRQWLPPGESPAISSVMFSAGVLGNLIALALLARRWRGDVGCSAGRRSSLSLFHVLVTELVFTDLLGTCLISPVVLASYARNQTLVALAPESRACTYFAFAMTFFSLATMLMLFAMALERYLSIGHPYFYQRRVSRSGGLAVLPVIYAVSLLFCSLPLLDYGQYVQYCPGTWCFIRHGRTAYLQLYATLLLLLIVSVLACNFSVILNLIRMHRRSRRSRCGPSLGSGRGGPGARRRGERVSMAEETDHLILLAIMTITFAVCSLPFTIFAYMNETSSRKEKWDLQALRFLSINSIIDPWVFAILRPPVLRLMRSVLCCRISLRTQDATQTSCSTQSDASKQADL

On to `Cc1sc2c(C)cc(F)cc2c1CCNc1cc(-c2ccc(C(=O)O)c(OCC(C)C)c2)ncn1` [Example 184, 4-{6-[2-(5-Fluoro-2,7-dimethyl-benzo[b]thiophen-3-yl)-ethylamino]-pyrimidin-4-yl}-2-isobutoxy-benzoic acid], for which the 50% inhibitory concentration (IC50) at PTGER2 (EP2) was found to be 7 nM; at PTGER4 (EP4), 311 nM; against EP4 receptor, 553 nM.
The like results for `CCCc1cc(-c2cc(NCCc3c(C)sc4c(C)cc(F)cc34)ncn2)ccc1CC(=O)O` [Example 186, (4-{6-[2-(5-Fluoro-2,7-dimethyl-benzo[b]thiophen-3-yl)-ethylamino]-pyrimidin-4-yl}-2-propyl-phenyl)-acetic acid] were, in that order, 22 nM, 242 nM and 252 nM.
The like results for `CCOc1cc(-c2cc(NCCc3c(C)sc4c(C)cc(F)cc34)ncn2)ccc1C(=O)C(=O)O` [Example 189, (2-Ethoxy-4-{6-[2-(5-fluoro-2,7-dimethyl-benzo[b]thiophen-3-yl)-ethylamino]-pyrimidin-4-yl}-phenyl)-oxo-acetic acid] were, in that order, 20 nM, 92 nM and 121 nM.
The like results for `CCCOc1cc(-c2cc(NCCc3c(C)sc4c(C)cc(F)cc34)ncn2)ccc1CC(=O)O` [Example 190, (4-{6-[2-(5-Fluoro-2,7-dimethyl-benzo[b]thiophen-3-yl)-ethylamino]-pyrimidin-4-yl}-2-propoxy-phenyl)-acetic acid] were, in that order, 28 nM, 200 nM and 219 nM.
